# Assay results taken from US12448383B2, “Compounds and methods for treatment of viral infections” (priority 2022, dated 2025).
# Where two headings read alike, the source gives them in different places.
# How the values were obtained:
# [1] = Stability in pH2 buffered solution; format: physicochemical
# Procedure: Example N: Stability in p112 and p117 Buffered Solutions
# The aqueous stability of compounds over a time of 24 hours at 40° C. was assessed. Stability was determined in 50 mM phosphate buffered solutions at both pH2 and pH7, with 150 mM NaCl (to achieve isotonicity). 3-5 mg of solid compounds were added to 7 mL scintillation vials. Acetonitrile was added to each vial to produce a 1 mg/mL stock solution. Stock solutions were diluted to 50 μg/mL in either pH2 or pH7 phosphate buffer, to a volume of 1 mL. For each compound and pH condition, 50 μg/mL samples were prepped in duplicate. One sample was placed on the UPLC tray at 40° C. for analysis, and the second sample was placed in a 40° C. oven for storage. Sample preps for each compound were offset by 40 minutes to account for run time on UPLC.
# Concentration timepoints were measured at 0, 3, 6, 9, and 12 hrs. After 24 hrs, samples in the 40° C. oven were removed and analyzed by UPLC.
# In FIG. 2, % AN stands for % area normalized. That is, % AN is the area of the compound peak relative to the sum of areas of all the peaks in the UPLC chromatogram. For example, if there were two peaks, compound peak with an area of 9 and another peak with an area of 1, then the % AN of the compound peak would be 90%.
# [2] = CC50 MT4 cytotoxicity (Cell-Titer Glo); format: cell-based; details: human
# Outline: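 CC50 values are the concentrations cutting viability by 50%, fitted by non-linear regression against untreated (100%) and 2 μM puromycin (0%) controls. Cell-Titer Glo luminescence measured after 4-5 days at 37° C exposure of uninfected MT-4 and HEp-2 cells to 3-fold dilutions spanning 15 nM to 100,000 nM.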
# [3] = test system: Respiratory syncytial virus recombinant with luciferase (RSV-Luc5) in HEp-2 cells; assay: microbe, parasite or virus in culture; format: cell-based; details: human respiratory syncytial virus, HEp-2, 72 h, read-out: RSV Hep2 EC50
# [4] = GI S9 stability - no PMSF; format: in vitro ADME; details: pH 7.4; human intestinal S9, PMSF-free; read-out: GIS9-HUMAN-NoPMSF T1/2
# Outline: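 Stability was assessed by Q-Exactive LC-MS peak area ratios against internal standard, tracking loss of parent and appearance of nucleoside metabolite Reference Compound A. Incubations used 2 μM compound in 1 mg/mL intestinal S9 without PMSF (PBS, pH 7.4), with six samples taken over 120 min.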
# [5] = Plasma stability; format: in vitro ADME; parameters: unit not given here; details: 37° C., 2 μM substrate
# Outline: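 LC-MS (Q-Exactive, 5 ppm tolerance, 0.1% formic acid water/acetonitrile gradient) quantified compound in quenched aliquots. Aliquots were taken at 0.05, 0.5, 1, 2, 3 and 4 hr and quenched with internal-standard solution, and supernatants were diluted with water after centrifugation.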
# [6] = test system: Respiratory syncytial virus recombinant with luciferase (RSV-Luc5) in Normal Human Bronchial Epithelial (NHBE) cells; assay: microbe, parasite or virus in culture; format: cell-based
# [7] = test system: SARS Coronavirus 2 recombinant with NanoLuc (SARS-CoV2-NLuc) in A549-hACE2 cells; assay: organism not typed; format: cell-based
# [8] = test system: Caco-2 cells (clone C2BBe1); assay: CACO-2 permeability; format: in vitro ADME; parameters: unit not given here; details: for DM Caco2 A to B: apical to basolateral, donor pH 6.5, receiver pH 7.4; for DM Caco2 B to A: basolateral to apical
# Outline: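 A-to-B and B-to-A flux measured by LC-MS/MS from receiver samples taken at 1 and 2 h, with donor sampled at 0 and 2 h and recovery checked. Buffers: pH 6.5 HBSS with 200 μM BNPP on the donor side, pH 7.4 with BSA on the receiver side. Monolayers were 21-day cultures, TEER-verified, in duplicate wells.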
# [9] = physchem
# [10] = read-out: EC50 RSVFluc-NHBE 384 V2
# [11] = A549, read-out: EC50 SARS CoV2 NanoLuc A549 384
SMILES,CC50 [2],EC50 [3],half-life at 2 µM [4],STA Human Plasma 37 [5],"EC50 ([6]; 72 h, read-out: RSV NHBE EC50)","EC50 ([7]; 48 h, read-out: SARS-CoV2 EC50)",DM Caco2 A to B [8],DM Caco2 B to A [8],logD [9],"EC50 [6, 10]","EC50 [7, 11]",further results
CC(C)C(=O)OC[C@H]1O[C@@](C#N)(c2ccc3c(N)ncnn23)[C@H](OC(=O)C(C)C)[C@@H]1OC(=O)C(C)C [2nd Ester Reference Compound],–,–,–,–,–,–,–,–,–,–,–,"Stability at pH2, 0 hr ([1]; 0 h, 50 µg/mL, pH 2): 100.0 % AN; Stability at pH2, 3 hr ([1]; 3 h, 50 µg/mL, pH 2): 100.0 % AN; Stability at pH2, 6 hr ([1]; 6 h, 50 µg/mL, pH 2): 100.0 % AN; Stability at pH2, 9 hr ([1]; 9 h, 50 µg/mL, pH 2): 98.3 % AN; Stability at pH2, 12 hr ([1]; 12 h, 50 µg/mL, pH 2): 97.7 % AN; Stability at pH2, 24 hr ([1]; 24 h, 50 µg/mL, pH 2): 96.2 % AN"
"CC(C)OC(=O)OC[C@H]1O[C@@](C#N)(c2ccc3c(NC(=O)C(C)C)ncnn23)[C@H](OC(=O)C(C)C)[C@@H]1OC(=O)C(C)C [Compound 75, (2R,3R,4R,5R)-2-cyano-2-(4-isobutyramidopyrrolo[2,1-f][1,2,4]triazin-7-yl)-5-(((isopropoxycarbonyl)oxy)methyl)tetrahydrofuran-3,4-diyl bis(2-methylpropanoate)]",> 50000 nM,1030 nM,0.884 min,277.1,321 nM,5060 nM,–,–,–,–,–,"pH 2 Stability 24 h % AN ([1]; pH2 phosphate buffer, 40° C., 24 h, Table N2): 0 % AN"
"C[C@@H](OC(=O)OC[C@H]1O[C@@](C#N)(c2ccc3c(N)ncnn23)[C@H](O)[C@@H]1O)c1ccccc1 [Compound 87, ((2R,3S,4R,5R)-5-(4-aminopyrrolo[2,1-f][1,2,4]triazin-7-yl)-5-cyano-3,4-dihydroxytetrahydrofuran-2-yl)methyl ((R)-1-phenylethyl) carbonate]",> 50000 nM,345 nM,1.25 min,28.7,559 nM,1050 nM,1.79,10.98,–,–,–,–
"C[C@H](OC(=O)OC[C@H]1O[C@@](C#N)(c2ccc3c(N)ncnn23)[C@H](O)[C@@H]1O)c1ccccc1 [Compound 88, ((2R,3S,4R,5R)-5-(4-aminopyrrolo[2,1-f][1,2,4]triazin-7-yl)-5-cyano-3,4-dihydroxytetrahydrofuran-2-yl)methyl ((S)-1-phenylethyl) carbonate]",> 50000 nM,382 nM,4.91 min,1584,70.2 nM,1630 nM,2.72,12.82,–,–,–,–
"CC[C@H](C)OC(=O)OC[C@H]1O[C@@](C#N)(c2ccc3c(N)ncnn23)[C@H](O)[C@@H]1O [Compound 90, ((2R,3S,4R,5R)-5-(4-aminopyrrolo[2,1-f][1,2,4]triazin-7-yl)-5-cyano-3,4-dihydroxytetrahydrofuran-2-yl)methyl ((S)-sec-butyl) carbonate]",> 50000 nM,249 nM,0.591 min,169.9,180 nM,1840 nM,0.9,7.41,–,–,–,–
"N#C[C@@]1(c2ccc3c(N)ncnn23)O[C@H](COC(=O)OCc2ncccn2)[C@@H](O)[C@H]1O [Compound 91, ((2R,3S,4R,5R)-5-(4-aminopyrrolo[2,1-f][1,2,4]triazin-7-yl)-5-cyano-3,4-dihydroxytetrahydrofuran-2-yl)methyl (pyrimidin-2-ylmethyl) carbonate]",> 50000 nM,3640 nM,42 min,285,5840 nM,14700 nM,0.02,0.5,–,–,–,–
"N#C[C@@]1(c2ccc3c(N)ncnn23)O[C@H](COC(=O)OCCN2CCOCC2)[C@@H](O)[C@H]1O [Compound 92, ((2R,3S,4R,5R)-5-(4-aminopyrrolo[2,1-f][1,2,4]triazin-7-yl)-5-cyano-3,4-dihydroxytetrahydrofuran-2-yl)methyl (2-morpholinoethyl) carbonate]",> 50000 nM,1800 nM,238 min,139.9,3040 nM,5630 nM,0.07,0.48,–,–,–,–
"N#C[C@@]1(c2ccc3c(N)ncnn23)O[C@H](COC(=O)OC(CF)CF)[C@@H](O)[C@H]1O [Compound 94, ((2R,3S,4R,5R)-5-(4-aminopyrrolo[2,1-f][1,2,4]triazin-7-yl)-5-cyano-3,4-dihydroxytetrahydrofuran-2-yl)methyl (1,3-difluoropropan-2-yl) carbonate]",> 50000 nM,1020 nM,1.13 min,105.4,923 nM,3630 nM,0.13,2.19,–,–,–,–
"CC(C)(C)OC(=O)C(C)(C)OC(=O)OC[C@H]1O[C@@](C#N)(c2ccc3c(N)ncnn23)[C@H](O)[C@@H]1O [Compound 138, tert-butyl 2-[[(2R,3S,4R,5R)-5-(4-aminopyrrolo[2,1-f][1,2,4]triazin-7-yl)-5-cyano-3,4-dihydroxy-tetrahydrofuran-2-yl]methoxycarbonyloxy]-2-methyl-propanoate]",> 50000 nM,–,–,–,–,–,–,–,2,> 50000 nM,21200 nM,–
"C[C@@H](OC(=O)OC[C@H]1O[C@@](C#N)(c2ccc3c(N)ncnn23)[C@H](O)[C@@H]1O)[C@@H](C(=O)OCC(C)(C)C)N(C)C [Compound 147, neopentyl O-((((2R,3S,4R,5R)-5-(4-aminopyrrolo[2,1-f][1,2,4]triazin-7-yl)-5-cyano-3,4-dihydroxytetrahydrofuran-2-yl)methoxy)carbonyl)-N,N-dimethyl-L-threoninate]",> 50000 nM,–,–,–,–,–,–,–,2.5,2470 nM,2850 nM,–
"C[C@@H](OC(=O)OC[C@H]1O[C@@](C#N)(c2ccc3c(N)ncnn23)[C@H](O)[C@@H]1O)[C@@H](C(=O)OCC1CCCC1)N(C)C [Compound 148, (2S,3R)-cyclopentylmethyl 3-(((((2R,3S,4R,5R)-5-(4-aminopyrrolo[2,1-f][1,2,4]triazin-7-yl)-5-cyano-3,4-dihydroxytetrahydrofuran-2yl)methoxy)carbonyl)oxy)-2-(dimethylamino)butanoate]",> 50000 nM,–,–,–,–,–,–,–,2.7,2100 nM,2050 nM,–
"C[C@@H](OC(=O)OC[C@H]1O[C@@](C#N)(c2ccc3c(N)ncnn23)[C@H](O)[C@@H]1O)[C@@H](C(=O)OC1CCCC1)N(C)C [Compound 149, cyclopentyl O-((((2R,3S,4R,5R)-5-(4-aminopyrrolo[2,1-f][1,2,4]triazin-7-yl)-5-cyano-3,4-dihydroxytetrahydrofuran-2-yl)methoxy)carbonyl)-N,N-dimethyl-L-threoninate]",> 50000 nM,–,–,–,–,–,–,–,2.2,2550 nM,2420 nM,–
"C[C@@H](OC(=O)OC[C@H]1O[C@@](C#N)(c2ccc3c(N)ncnn23)[C@H](O)[C@@H]1O)[C@@H](C(=O)OC1CCOCC1)N(C)C [Compound 150, tetrahydro-2H-pyran-4-yl O-((((2R,3S,4R,5R)-5-(4-aminopyrrolo[2,1-f][1,2,4]triazin-7-yl)-5-cyano-3,4-dihydroxytetrahydrofuran-2-yl)methoxy)carbonyl)-N,N-dimethyl-L-threoninate]",> 50000 nM,–,–,–,–,–,–,–,1.3,3080 nM,2370 nM,–
